The source of these data is patent US10235756B2, “Vascular analysis methods and apparatus” (Bio-Tree Systems, Inc., priority 2009, dated 2019).

In one test the test system is glioblastoma. Kind of test: Vascular biomarker analysis of control and Avastin-treated glioblastoma (3D tumor vasculature, tumor wrap). The class given is in vivo. An excerpt: X-ray images of a control tumor and an Avastin-treated tumor are shown side by side in FIG. 43. […] FIGS. 46 and 47 show exemplary tumor wraps of the same control and Avastin-treated tumors. FIGS. 48-52 exemplify visualization of the distribution of microvascular density within two exemplary tumors.
In some embodiments, the assessment of vascular hot spots and/or necrotic regions within a diseased tissue, for example a malignant tumor, may be used in the evaluation of a treatment targeting said diseased tissue, for example the administration of a chemotherapeutic agent. FIG. 54 exemplify a comparison of vascular hot spots and necrotic regions in glioblastoma treated with Avastin to vascular hot spots and necrotic regions in non-treated control glioblastoma. […] Assessment of an exemplary vascular density related biomarker, total vessel density (number of vessels per given volume), in Avastin-treated glioblastoma and untreated controls is depicted in FIG. 56. Assessment of another exemplary vascular density related biomarker, mean vessel density (average number of vessels over a number of volume units, for example defined by the boundary of a tumor), in Avastin-treated glioblastoma and untreated controls as depicted in FIG. 57. Assessment of an exemplary vascular density related biomarker, total vessel volume density (number of voxels belonging to a vessel within a given volume), in Avastin-treated glioblastoma and untreated controls is depicted in FIG. 58. Assessment of another exemplary vascular density related biomarker, mean vessel volume density (average number of voxels belonging to a vessel within a number of volume units, for example defined by the boundary of a tumor), in Avastin-treated glioblastoma and untreated controls as depicted in FIG. 59. In some embodiments, a boundary of a tissue, for example a tumor, are determined based on vascular imaging and modeling data, and a subsequent assessment qualifying a voxel within those boundaries is carried out. In some embodiments, a biomarker is […] in a plurality of such qualified voxels. For example, the boundary of a solid tumor may be determined based on the abnormal vasculature associated with malignant tissue, for example by “tumor-wrap”, and vascular density related biomarkers may be assessed for tissue within that boundary.
It should be appreciated, that the biomarkers related to by some aspects of this invention may be useful in a wide variety of diagnostic and therapeutic modalities and applications, some non-limiting examples of which are described herein.

The next test deals with vasculature. The test can be described thus: Morphological features as a function of vessel diameter, control vs treated vasculature. It counts as in vivo. Particulars: control vasculature vs vasculature treated with Avastin, FIGS. 30-32. An excerpt:
As discussed above, computed morphological features may be used to compare the same features obtained from healthy tissue, or to compare the same features extracted from a bounded vasculature at different points in time to, for example, assess the effectiveness of treatment. FIGS. 30-33 illustrate examples of using various morphological properties described herein to, for example, quantify diseased vasculature and/or assess the effectiveness of a particular treatment. FIGS. 30-32 illustrate plots of a respective morphological feature as a function of vessel diameter for a control vasculature and for a vasculature treated with Avastin. […] Moreover, the impact may differ depending on the vessel size. That is, differences between the control and treated plots may be larger or smaller depending on the diameter of the vessel. Applicant has appreciated that the differences may be quantified to define a range wherein differences are different enough to help determine which vessel diameters are being targeted and impacted by the treatment.

Test [1] relates to human non-small cell lung tumor cell line (A549) subcutaneous tumors. The test can be described thus: Xenotopic tumor model, response to antiangiogenic therapy (vascular casts, micro CT). The class given is in vivo, mouse. As to the method: A tumor model can be generated by inoculating human non-small cell lung tumor cell line (A549 from ATCC, Inc.) subcutaneously in immunodeficient mice (SCID). SCID male mice (6-8 weeks old from Charles River Inc.) are inoculated subcutaneously in the lower back with a suspension of 1×10^6 human lung tumor cells (A549) in 0.2 ml of PBS. All mice are fed normal chow diet throughout the duration of the experiment. All mice weights are measured throughout the experiment. Tumor size is measured with calipers twice-a-week and tumor volume is calculated using the formula Length^2×Width×0.52. All mice are randomized into two treatment groups (approximately 10 mice per group) when the median tumor volume reaches approximately 500 mm^3. The treatment groups can be treated according to the following schedule using intraperitoneal (i.p.) administration of either a control composition or an anti-angiogenic compound. For example, different levels of an anti-angiogenic compound can be used and the results compared to a control group that is not treated with an anti-angiogenic compound (e.g., Avastin® available from Genentech, South San Francisco, Calif.). For example:
Group 1: Control group—treated with saline/PBS twice a week.
Group 2: High Avastin®—treated with Avastin® at 5 mg/kg/i.p. twice a week.
Group 3: Low Avastin®—treated with Avastin® at 0.5 mg/kg/i.p. twice a week.
Experiments are terminated 1.5 weeks after initial treatment.
At the end-point, all mice are anesthetized and systemically perfused with a casting agent.
In some embodiments, a tissue, for example, a tumor tissue, is perfused with a contrast and/or a casting agent prior to image acquisition. Methods of tissue perfusion are well known to those of skill in the art. In some embodiments, a tissue is perfused with Mercox, a casting agent available, for example, from Ladd Research, Williston, Vt. Mercox perfusion can be performed, as follows. An initial anticoagulation step for each animal is performed using an i.v. injection of heparin (10,000 U/ml, 0.3 cc/mouse). After 30 minutes, the animals are anesthetized. Each animal's heart is cannulated and the animal perfused with warm physiological saline at physiological pressure (with an open vein draining the organ or with an open vena cava). Perfusion is continued until the organ or animal is clear of blood. Mercox monomer is filtered through a 0.5 μm filter and a casting resin is prepared by mixing 8 ml Mercox, 2 ml methylmethacrylate, and 0.3 ml catalyst. The resin is infused through the same cannula until the onset of polymerization (the resin changes color to brown and emits heat, ˜10 min). The organ or animal is carefully immersed in a 60° C. water bath for 2 hours (or overnight in a sealed container). The tissue is removed by incubating in alternating rinses of 5% KOH and distilled water (for example in a 60° C. water bath sealed) followed by thorough rinsing in distilled water. The cast is cleaned in 5% formic acid for 15 minutes and rinsed thoroughly in distilled water and frozen in distilled water. The resulting block of ice is lyophilized (care should be taken not to melt the ice, the ice should […] as it lyophilizes). The resulting cast can be analyzed to identify one or more structural characteristics of interest.
Xenotopic mouse models obtained as described in Example 7 can be treated with either a control solution of saline/PBS or an anti-angiogenic preparation of Avastin® at 0.5 mg/kg/i.p. as described above. At the end-point, vascular casts can be prepared as described in Example 8 above and may be analyzed for two treated mice (both treated with Avastin® at 0.5 mg/kg/i.p.) and one control mouse. However, other experimental configurations may be used. The resulting vascular casts can be scanned using a micro CT-scanner and exemplary results of the structural analysis are shown in FIGS. 44-47. […] The blood vessel population distributions were consistent for both treated animals. […]

Test [2] concerns mouse tumor model generated using H1975 cells. The test can be described thus: Hot spot analysis in mouse tumor model. It counts as in vivo. The source says:
Applicant has appreciated that vascular information (e.g., based on vascular geometry) within a region (e.g., a wrapped 3D region) may be analyzed to identify one or more hot spots. For example, a threshold number of poker chips may be identified as a threshold for a hot spot within a unit volume of a tumor. The relative amount (e.g., percentage) of tumor vasculature that is represented by a hot spot then may be determined. This value may be used to evaluate the tumor (e.g., for diagnostic or prognostic purposes) or to evaluate a tumor response to therapy. In a non-limiting example, a hot spot may be defined as a cubic millimeter that contains more than 10,000 poker chips. FIGS. 73 and 74 illustrate experiments where the percentage represented by the hot spot regions (e.g., as a percentage of unit volumes within a tumor volume that are above the threshold for defining a hotspot) are evaluated in a mouse tumor model in response to Avastin treatment. The mouse tumor model was generated using H1975 cells. Mice were compared with and without Avastin treatment (Avastin provided for 10 days as described herein). The tumors analyzed were approximately 100 cubic mm in size. […]

Setting [3] is: Avastin-treated vs non-treated control glioblastoma, FIG. 55.
[4] abbreviates: 0.5 mg/kg/i.p., treated vs untreated tumors.

On to bevacizumab [Avastin], for which, in the test on glioblastoma (setting [3]), the hot spot density entry was “significant decrease”, the necrotic region volume entry is on record as “significant increase” and the vessel volume density result is given as “significant decrease”. The “frequency of microvascular density bins” value in the test with glioblastoma (control vs treated tumor, FIG. 53) is recorded as “different microvascular density bin distribution”. In addition, in the test on vasculature, the “morphological features as a function of vessel diameter” value is “there are differences”. Moreover, the mean tumor volumes result in test [1] (0.5 mg/kg/i.p., treated vs control group at the end of the experiment) is recorded as “did not differ significantly”. Further, the blood vessel density entry in test [1] (0.5 mg/kg/i.p., treated vs control, FIGS. 54-67) is given as “differences in blood vessel density were detected”. For the same substance, in test [1] (setting [4]), the “percentage of middle diameter sized vessels” value was “higher percentage” and the “small diameter sized vessels, less than untreated tumors” value came to 20%. Further, in test [1] (large approximately 147-161 μm, middle approximately 33-77 μm, after treatment), the “vessel population ratio between large and middle size vessels” value is on record as “decreased”. The “vessel population ratio between small and middle size vessels” value in test [1] (small approximately 21-35 μm, middle approximately 35-49 μm, after inhibitor treatment) was “decreased”. Further, in test [2] (Avastin provided for 10 days, over the time of the experiment, FIG. 73), the “mean percentage of hot spot regions” value is “decrease”. Further, the “percentage of hot spot regions after treatment” value in test [2] (change of about 40% to about 10%, Avastin for 10 days, hot spot = cubic millimeter with more than 10,000 poker chips) was “about 10%”.
